Assays:
[1] = tested on: tubulin; experiment: Fluorescence-based tubulin polymerization assay; format: biochemical; settings: purified tubulin, fluorescent reporter, vs DMSO control
Method: Tubulin polymerization in vitro was analyzed using the fluorescence-based tubulin polymerization assay (Cytoskeleton, Inc.), according to the manufacturer’s guidelines. Fluorescence was read on a SaFire II microplate reader (Tecan).

[2] = tested on: EKVX; experiment: NCI60 5-dose screen, EKVX; format: cell-based; settings: Homo sapiens, non-small cell lung cancer, Fig 1D, read-out: Log10 GI50 (EKVX) (converted)
Method: (§1) The screening methodology used in the NCI60 Cell 5-Doses screen is described in detail at https://dtp.cancer.gov/discovery_development/nci-60/methodology.htm. Briefly, cells are seeded in 96 well plates at an appropriate density and incubated for 1 day. After 1 day, some of the plates are processed to determine a time zero density. To the remaining plates, compounds are added over a 5-log M concentration range (1 log dilutions from 10^-4M to 10^-8M). Plates are incubated for two additional days, then fixed and stained with sulforhodamine B. Growth inhibition is calculated relative to cells without drug treatment and the time zero control. The GI50 is the concentration of a compound that causes 50% growth inhibition, relative to the no drug control.

[3] = tested on: HT-29 xenograft; experiment: HT-29 xenograft tumor model; format: in vivo; settings: for ratio of relative tumor volume of treated mice over control mice (T/C): end of the treatment period
Method: Seven-week-old NMRI nude male mice were obtained from Janvier Labs (France) and injected with 10^7 HT-29 cells intradermally on the flank. When tumors reached approximately 100 mm^3, mice were distributed into three groups of four to six mice to give the same average tumor size per group and randomly assigned a treatment condition. Mice were injected IV with 4AZA2891 at 15 mg/kg following a Q1D5x2W administration schedule or at 30 mg/kg following a Q2D3x2W administration schedule or with the vehicle (Q1D5x2W). 4AZA2891 was formulated before each injection at 3 mg/ml in 5% glucose with 2 equivalent H3PO4 and warmed at 80°C for 1 h to obtain a clear solution. Tumor volume was measured as (width^2 × length)/2 in mm^3 and weight gain/loss and survival were monitored. T/C ratio was calculated as the ratio of the relative tumor volume average. The health status and behaviour of the animals were assessed daily for well-being. At the end of the experiment (day 35 after treatment intiation)) or in the events of signs of distress, cachexia or excessive tumor growth, the mice were humanely sacrificed by CO2 inhalation followed by cervical dislocation.

[4] = tested on: MALME-3M; experiment: NCI60 5-dose screen, MALME-3M; format: cell-based; settings: Homo sapiens, melanoma, Fig 1D, read-out: Log10 GI50 (MALME-3M) (converted)
Method: as §1

[5] = tested on: OVCAR-5; experiment: NCI60 5-dose screen, OVCAR-5; format: cell-based; settings: Homo sapiens, ovarian cancer, Fig 1D, read-out: Log10 GI50 (OVCAR-5) (converted)
Method: as §1

[6] = Pharmacokinetics in rats; format: in vivo, Sprague-Dawley rats; settings: rat
Method: The pharmacokinetic profile of 4AZA2891 was investigated in male Sprague-Dawley rats after intravenous and oral administration of a dose of 2 mg/kg and 20 mg/kg, respectively. The rats were purchased from Charles River Laboratories (Belgium) and 3 rats were included in each dosing route. 4AZA2891 was formulated either as a solution at 1 mg/ml in glucose 5% with 2 equivalents of H3PO4 for the IV dosing or as a solution at 4 mg/ml in water with 2 equivalents of H3PO4 for the oral dosing. Both formulations were heated for 1 hour at 80°C in order to obtain a clear solution. Serial venous blood samples, taken by eye puncture under isoflurane inhalation anesthesia, were collected in heparinized tubes. The plasma fraction was immediately separated by centrifugation 2 min at 13,000 g and stored at -80°C until analysis. Plasma concentrations were measured using liquid chromatography/mass spectrometry/mass spectrometry (LC/MS/MS).
Every plasma and tissue sample was spiked with internal standard followed by the addition of 4 volumes of methanol. The samples were kept for 30 min on ice prior to centrifugation 10 min at 12,000 RPM in order to remove precipitated proteins. The supernatant was analyzed for the presence of 4AZA2891 using LC/MS/MS (Finnigan LCQ advantage Max (ion trap) mass spectrometer with Surveyor HPLC System (Thermo Finnigan)).
As standard for the bioanalysis, 4AZA2891 was diluted stepwise. Each dilution was added to blank control plasma or to blank control tissue homogenate additionally spiked with internal standard, giving rise to standard curves from 5 to 5,000 ng/ml. The lower limit of quantification was 5 to 10 ng/ml depending on the tissues.
Non-compartmental pharmacokinetic analysis was performed on the plasma concentration-time data. PK Solutions 2.0 software (Summit Research Services) was used to calculate the PK parameters.

[7] = tested on: HOP-92; experiment: NCI60 5-dose screen, HOP-92; format: cell-based; settings: Homo sapiens, non-small cell lung cancer, Fig 1D, read-out: Log10 GI50 (HOP-92) (converted)
Method: as §1

[8] = tested on: NCI/ADR-RES; experiment: NCI60 5-dose screen, NCI/ADR-RES; format: cell-based; settings: Homo sapiens, ovarian cancer, Fig 1D, read-out: Log10 GI50 (NCI/ADR-RES) (converted)
Method: as §1

[9] = tested on: OVCAR-4; experiment: NCI60 5-dose screen, OVCAR-4; format: cell-based; settings: Homo sapiens, ovarian cancer, Fig 1D, read-out: Log10 GI50 (OVCAR-4) (converted)
Method: as §1

[10] = Myelotoxicity in mice; format: in vivo; settings: Balb/c mice
Method: Female Balb/c mice from Janvier Labs, 8–10 weeks old, were injected IV daily for 6 days with 4AZA2891 at 15 mg/kg or with the vehicle (4 mice per treatment group). The compound was formulated at 0.75 mg/ml in glucose 5% with 2 equivalents H3PO4 as described above. Mice were daily weighted and assessed clinically. On day 7, mice were exsanguinated by retro-orbital bleeding under anesthesia with avertin (given intraperitoneally); blood was collected in EDTA tubes and was subjected to an automated blood count (Sysmex XE 2100 Hematology Analyser, Sysmex Europe GmbH). Femurs were fixed in formaldehyde, decalcified, and paraffin embedded. Sections (4.5 μm) were stained with hematoxylin/eosin (H&E) for histopathological analysis at Novaxia (France).

[11] = tested on: NCI-H226; experiment: NCI60 5-dose screen, NCI-H226; format: cell-based; settings: Homo sapiens, non-small cell lung cancer, Fig 1D, read-out: Log10 GI50 (NCI-H226) (converted)
Method: as §1

[12] = 15 mg/kg IV once daily for 6 days, blood on day 7

In the case of `Cc1cc(C)cc(Nc2ccc([N+](=O)[O-])c(NCCN3CCOCC3)n2)c1` [Compound 4AZA2891, 6-(3,5-dimethylanilino)-2-(2-morpholinoethylamino)-3-nitropyridine], the “effect on tubulin polymerization in vitro” value [1] was “dose-dependently inhibits tubulin polymerization”, the GI50 [2] was 44.7 nM and the “ratio of relative tumor volume of treated mice over control mice (T/C)” value ([3]; 15 mg/kg IV Q1D5x2W) was 42%. For the same compound, the “ratio of relative tumor volume of treated mice over control mice (T/C)” value ([3]; 30 mg/kg IV Q2D3x2W) was 34%, the tumor growth inhibition ([3]; both dosing regimen (15 mg/kg Q1D5x2W, 30 mg/kg Q2D3x2W), IV) was “significant tumor growth inhibition” and the “tolerability (body weight evolution)” value ([3]; both dosing regimens, IV, tumor bearing mice) was “well tolerated”. For the same compound, the GI50 [4] was 15800 nM, the GI50 [5] was 36.3 nM and the AUC(0-t) ([6]; male, Sprague-Dawley, plasma, IV 2 mg/kg, read-out: AUClast in plasma) was 253 ng·h/mL. For the same compound, the half-life ([6]; male, Sprague-Dawley, plasma, IV 2 mg/kg, read-out: elimination half-life (converted)) was 48 min, the clearance ([6]; male, Sprague-Dawley, plasma, IV 2 mg/kg, read-out: systemic clearance (converted)) was 132 mL/min/kg and the Vd ([6]; male, Sprague-Dawley, plasma, IV 2 mg/kg, read-out: volume of distribution at steady state) was 7.4 L/kg. The “time detected in the plasma” value ([6]; IV 2 mg/kg, lower limit of quantification 10 ng/ml) was “up to 3 hours”, the oral bioavailability ([6]; oral 20 mg/kg) was “not orally bioavailable” and the “plasma levels after oral dose” value ([6]; oral 20 mg/kg, all time points) was “below the limit of quantification”. For the same compound, the GI50 [7] was < 10 nM, the GI50 [8] was < 10 nM and the GI50 [9] was < 10 nM. The Hb [10, 12] was 14.7 ± 2.2 g/dL, the Platelets [10, 12] was 234 ± 84 10^9/l and the RBC [10, 12] was 9.4 ± 1.6 10^12/l. For the same compound, the WBC [10, 12] was 5.2 ± 2.6 10^9/l, the “histologic examination of the bone marrow” value ([10]; 15 mg/kg/d IV during 6 days) was “normal” and the “tolerability (body weight change, anemia, leukocytopenia, thrombocytopenia)” value ([10]; 15 mg/kg/d IV during 6 days) was “well tolerated”. The GI50 [11] was 31.6 nM.
